Reference: patent publication US6340764B1, “Reference compound for use in the analysis of levosimendan batches” (Orion Corporation, priority 1998, dated 2002)

System: bacterial mutagenity test (Ames test)
Experiment: bacterial mutagenity test (Ames test)
Assay type: cell-based

| SMILES | genotoxic / mutagenic properties in the bacterial mutagenity test (Ames test) |
| --- | --- |
| CC1CC(=O)NN=C1c1ccc(NN=C(C#N)C#N)cc1 (single isomer, unassigned; (-)) [levosimendan, (−)-enantiomer of [[4-(1,4,5,6-tetrahydro-4-methyl-6-oxo-3-pyridazinyl)phenyl]hydrazono]propanedinitrile] | show potential genotoxic properties occasionally |
| CC1CC(=O)OC1(N=[N+]=[N-])c1ccc(NN=C(C#N)C#N)cc1 (centres unmarked) [Compound (I), [[4-(2-azido-3-methyl-5-oxotetrahydrofuran-2-yl)phenyl]hydrazono]propanedinitrile] | potent mutagen |
